In PubChem BioAssay (NCI):
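Abbreviation: GI50, concentration required for 50% inhibition of growth. TGI denotes the concentration required for complete inhibition of growth.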

Legend:
Assay in all cases: DTP human tumour cell line panel, 384-well format
HT29 colon = test system: HT29 colon
HOP-62 NSCLC = test system: HOP-62 NSCLC
SF-268 CNS = test system: SF-268 CNS
CCRF-CEM leukemia = test system: CCRF-CEM leukemia
SF-539 CNS = test system: SF-539 CNS
U251 glioblastoma = test system: U251 glioblastoma
SNB-19 CNS = test system: SNB-19 CNS
PC-3 prostate = test system: PC-3 prostate
HCT-15 colon = test system: HCT-15 colon
UACC-62 melanoma = test system: UACC-62 melanoma
SK-MEL-2 melanoma = test system: SK-MEL-2 melanoma
OVCAR-4 ovarian = test system: OVCAR-4 ovarian
COLO 205 colon = test system: COLO 205 colon
NCI-H322M lung = test system: NCI-H322M lung
HS 578T breast = test system: HS 578T breast
NCI-H460 NSCLC = test system: NCI-H460 NSCLC
SR leukemia = test system: SR leukemia
NCI/ADR-RES ovarian = test system: NCI/ADR-RES ovarian
CAKI-1 renal = test system: CAKI-1 renal
786-0 renal = test system: 786-0 renal
HOP-92 NSCLC = test system: HOP-92 NSCLC
DU-145 prostate = test system: DU-145 prostate
EKVX NSCLC = test system: EKVX NSCLC
SN12C renal = test system: SN12C renal
NCI-H23 lung = test system: NCI-H23 lung
MCF7 breast = test system: MCF7 breast
HL-60(TB) leukemia = test system: HL-60(TB) leukemia
A549 NSCLC = test system: A549 NSCLC
K-562 leukemia = test system: K-562 leukemia
OVCAR-3 ovarian = test system: OVCAR-3 ovarian
HCT-116 colon = test system: HCT-116 colon
T-47D breast = test system: T-47D breast
SK-MEL-5 melanoma = test system: SK-MEL-5 melanoma
A498 renal = test system: A498 renal
M14 melanoma = test system: M14 melanoma
SK-OV-3 ovarian = test system: SK-OV-3 ovarian
ACHN renal = test system: ACHN renal
RPMI-8226 leukemia = test system: RPMI-8226 leukemia
MDA-MB-231 breast = test system: MDA-MB-231 breast
UACC-257 melanoma = test system: UACC-257 melanoma
NCI-H226 lung = test system: NCI-H226 lung
KM12 colon = test system: KM12 colon
RXF 393 renal = test system: RXF 393 renal
TK-10 renal = test system: TK-10 renal
SNB-75 CNS = test system: SNB-75 CNS
HCC-2998 colon = test system: HCC-2998 colon
MALME-3M melanoma = test system: MALME-3M melanoma
MDA-MB-435 melanoma = test system: MDA-MB-435 melanoma
NCI-H522 lung = test system: NCI-H522 lung
SW-620 colon = test system: SW-620 colon
BT-549 breast = test system: BT-549 breast
MOLT-4 leukemia = test system: MOLT-4 leukemia
OVCAR-5 ovarian = test system: OVCAR-5 ovarian
IGROV1 ovarian = test system: IGROV1 ovarian
OVCAR-8 ovarian = test system: OVCAR-8 ovarian
LOX IMVI melanoma = test system: LOX IMVI melanoma
MDA-MB-468 breast = test system: MDA-MB-468 breast
SK-MEL-28 melanoma = test system: SK-MEL-28 melanoma
SF-295 CNS = test system: SF-295 CNS

Nc1ccn([C@@H]2C(F)=C(CO)[C@@H](O)[C@H]2O)c(=O)n1
GI50 (HT29 colon): 922 nM | TGI (HT29 colon): > 42.7 µM | GI50 (HOP-62 NSCLC): 1260 nM | TGI (HOP-62 NSCLC): 31.5 µM | GI50 (SF-268 CNS): 2700 nM | TGI (SF-268 CNS): > 100 µM | GI50 (CCRF-CEM leukemia): 825 nM | TGI (CCRF-CEM leukemia): 2590 nM | GI50 (SF-539 CNS): 1610 nM | TGI (SF-539 CNS): > 100 µM | GI50 (U251 glioblastoma): 2780 nM | TGI (U251 glioblastoma): > 100 µM | GI50 (SNB-19 CNS): 3.37 µM | TGI (SNB-19 CNS): > 100 µM | GI50 (PC-3 prostate): 5.23 µM | TGI (PC-3 prostate): > 78.7 µM | GI50 (HCT-15 colon): 1090 nM | TGI (HCT-15 colon): > 100 µM | GI50 (UACC-62 melanoma): 3.87 µM | TGI (UACC-62 melanoma): > 100 µM | GI50 (SK-MEL-2 melanoma): 19.8 µM | TGI (SK-MEL-2 melanoma): > 100 µM | GI50 (OVCAR-4 ovarian): 23.5 µM | TGI (OVCAR-4 ovarian): > 100 µM | GI50 (COLO 205 colon): 775 nM | TGI (COLO 205 colon): 3.96 µM | GI50 (NCI-H322M lung): 5.74 µM | TGI (NCI-H322M lung): > 100 µM | GI50 (HS 578T breast): 13.4 µM | TGI (HS 578T breast): > 100 µM | GI50 (NCI-H460 NSCLC): 361 nM | TGI (NCI-H460 NSCLC): 5.46 µM | GI50 (SR leukemia): 183 nM | TGI (SR leukemia): 344 nM | GI50 (NCI/ADR-RES ovarian): 882 nM | TGI (NCI/ADR-RES ovarian): 4.3 µM | GI50 (CAKI-1 renal): 383 nM | GI50 ([…]-0 renal): 1090 nM | TGI (786-0 renal): > 100 µM | GI50 (HOP-92 NSCLC): 745 nM | TGI (HOP-92 NSCLC): 5.65 µM | GI50 (DU-145 prostate): 396 nM | TGI (DU-145 prostate): 1810 nM | GI50 (EKVX NSCLC): 33.5 µM | TGI (EKVX NSCLC): > 100 µM | GI50 (SN12C renal): 500 nM | TGI (SN12C renal): 4.9 µM | GI50 (NCI-H23 lung): 3.07 µM | TGI (NCI-H23 lung): 13.1 µM | GI50 (MCF7 breast): 1020 nM | TGI (MCF7 breast): > 100 µM | GI50 (HL-60(TB) leukemia): 374 nM | TGI (HL-60(TB) leukemia): 979 nM | GI50 (A549 NSCLC): 461 nM | TGI (A549 NSCLC): > 35.6 µM | GI50 (K-562 leukemia): 474 nM | TGI (K-562 leukemia): > 100 µM | GI50 (OVCAR-3 ovarian): 4.47 µM | TGI (OVCAR-3 ovarian): > 100 µM | GI50 (HCT-116 colon): 409 nM | TGI (HCT-116 colon): 21.4 µM | GI50 (T-47D breast): 10.7 µM | TGI (T-47D breast): > 100 µM | GI50 (SK-MEL-5 melanoma): 7.7 µM | TGI (SK-MEL-5 melanoma): 68.5 µM | GI50 (A498 renal): 1510 nM | TGI (A498 renal): 13.6 µM | GI50 (M14 melanoma): 763 nM | TGI (M14 melanoma): > 21.2 µM | GI50 (SK-OV-3 ovarian): 5.57 µM | TGI (SK-OV-3 ovarian): > 59.6 µM | GI50 (ACHN renal): 923 nM | TGI (ACHN renal): > 73.1 µM | GI50 (RPMI-8226 leukemia): 292 nM | TGI (RPMI-8226 leukemia): 922 nM | GI50 (MDA-MB-231 breast): 1320 nM | TGI (MDA-MB-231 breast): > 93.8 µM | GI50 (UACC-257 melanoma): 28.2 µM | TGI (UACC-257 melanoma): > 96.5 µM | GI50 (NCI-H226 lung): 13.5 µM | TGI (NCI-H226 lung): > 100 µM | GI50 (KM12 colon): 2140 nM | TGI (KM12 colon): > 100 µM | GI50 (RXF 393 renal): 2340 nM | TGI (RXF 393 renal): > 72.1 µM | GI50 (TK-10 renal): 689 nM | TGI (TK-10 renal): > 100 µM | GI50 (SNB-75 CNS): 12.3 µM | TGI (SNB-75 CNS): > 100 µM | GI50 (HCC-2998 colon): 1710 nM | TGI (HCC-2998 colon): > 100 µM | GI50 (MALME-3M melanoma): 4.43 µM | TGI (MALME-3M melanoma): > 100 µM | GI50 (MDA-MB-435 melanoma): 967 nM | TGI (MDA-MB-435 melanoma): > 100 µM | GI50 (NCI-H522 lung): 539 nM | TGI (NCI-H522 lung): 57.3 µM | GI50 (SW-620 colon): 893 nM | TGI (SW-620 colon): > 50.7 µM | GI50 (BT-549 breast): 25.4 µM | TGI (BT-549 breast): > 100 µM | GI50 (MOLT-4 leukemia): 182 nM | TGI (MOLT-4 leukemia): 338 nM | GI50 (OVCAR-5 ovarian): 1020 nM | TGI (OVCAR-5 ovarian): > 28.3 µM | GI50 (IGROV1 ovarian): 3.95 µM | TGI (IGROV1 ovarian): > 100 µM | GI50 (OVCAR-8 ovarian): 704 nM | TGI (OVCAR-8 ovarian): > 23.9 µM | GI50 (LOX IMVI melanoma): 791 nM | TGI (LOX IMVI melanoma): 12 µM | GI50 (MDA-MB-468 breast): 38.4 µM | TGI (MDA-MB-468 breast): > 100 µM | GI50 (SK-MEL-28 melanoma): 1250 nM | TGI (SK-MEL-28 melanoma): > 100 µM | GI50 (SF-295 CNS): 2840 nM | TGI (SF-295 CNS): > 92.8 µM
